Laboratory results: publication PMC12809495, “Potential 14-3-3 binding sites in sirtuins reveal extended phosphosite-recognition modes” (Acta Crystallographica Section F: Structural Biology …, 2026)
Where two headings read alike, the source gives them in different places. Where a SMILES comes first, the peptide text is derived from it. [ ]: non-standard residue; d: D form. pS = N[C@@H](COP(=O)(O)O)C(=O)O

How the values were obtained:
14-3-3 isoform theta = molecular target: T1, 14-3-3 isoform theta (Homo sapiens, UniProt P27348); test: Label-free microscale thermophoresis (MST) binding, 14-3-3 theta; conditions: label-free MST, 0.6 µM 14-3-3 protein, 25 mM MES pH 6.5, 5 mM MgCl2, 5 mM CaCl2, 25°C; Kd from duplicate measurements; read-out: Affinity estimates by MicroScale Thermophoresis, 14-3-3 isoform theta (Kd)
T1 construct: His6; made in house; host or cells: Escherichia coli BL21 Rosetta (DE3)
T1 sequence (P27348 1-245): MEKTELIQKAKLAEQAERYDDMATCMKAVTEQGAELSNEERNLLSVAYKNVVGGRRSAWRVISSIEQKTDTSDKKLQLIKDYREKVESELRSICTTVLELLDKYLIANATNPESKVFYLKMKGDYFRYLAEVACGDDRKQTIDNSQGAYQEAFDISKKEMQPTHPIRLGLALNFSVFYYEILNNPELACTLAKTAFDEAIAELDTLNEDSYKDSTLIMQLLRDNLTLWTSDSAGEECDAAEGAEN
Description: (§1) The binding of phosphorylated sirtuin peptides (Fig. 1 ▸) was analyzed using the change in the intrinsic fluorescence signal of the 14-3-3 proteins measured with label-free microscale thermophoresis using a Nanotemper Monolith NT.LabelFree or NT.115. A typical binding experiment using 0.6 µM 14-3-3 protein was performed in a modified MST buffer consisting of 25 mM MES pH 6.5, 5 mM MgCl2, 5 mM CaCl2. The measurements were performed at 25°C using a LED power of 10–40%. All measurements were performed at least in duplicate, and the results shown are representative measurements individually fitted using GraFit 7 (Erathicus Software, Horley, United Kingdom).
(§2) Figure 1 Classification and analysis of sirtuin PSSM results for potential 14-3-3 phosphoserine binding sites. Peptides with a gray background were not analyzed experimentally. Score is the overall PSSM score for the phosphorylation site; rank is the order within the 17 proposed sirtuin binding sites. Conserved residues in the 14-3-3 motifs are marked in green. Residues with restricted (proline) or very flexible (glycine) protein backbone or with a very large side chain (tryptophan) are marked in red. Amino acids with the same or similar hydrophobicity/size are shown in magenta. Kd values from duplicate measurements are colored green for Kd < 100 µM. Fields marked in red indicate no binding or no successful experiment. TEXT PRINTED IN THE PICTURE: Sirt1 S26: Affinity estimates by MicroScale Thermophoresis [μM], 14-3-3 isoform sigma: none | Sirt1 S670: Affinity estimates by MicroScale Thermophoresis [μM], 14-3-3 isoform gamma: aggr.; Affinity estimates by MicroScale Thermophoresis [μM], 14-3-3 isoform epsilon: > 183; Affinity estimates by MicroScale Thermophoresis [μM], 14-3-3 isoform theta: 93; Affinity estimates by MicroScale Thermophoresis [μM], 14-3-3 isoform sigma: 5 | Sirt3 S103: Affinity estimates by MicroScale Thermophoresis [μM], 14-3-3 isoform gamma: aggr.; Affinity estimates by MicroScale Thermophoresis [μM], 14-3-3 isoform epsilon: > 267; Affinity estimates by MicroScale Thermophoresis [μM], 14-3-3 isoform theta: 52; Affinity estimates by MicroScale Thermophoresis [μM], 14-3-3 isoform sigma: 10 | Sirt3 S103wt: Affinity estimates by MicroScale Thermophoresis [μM], 14-3-3 isoform gamma: aggr.; Affinity estimates by MicroScale Thermophoresis [μM], 14-3-3 isoform theta: none; Affinity estimates by MicroScale Thermophoresis [μM], 14-3-3 isoform sigma: none | Sirt3 S105: Affinity estimates by MicroScale Thermophoresis [μM], 14-3-3 isoform gamma: aggr.; Affinity estimates by MicroScale Thermophoresis [μM], 14-3-3 isoform epsilon: > 215; Affinity estimates by MicroScale Thermophoresis [μM], 14-3-3 isoform theta: 60; Affinity estimates by MicroScale Thermophoresis [μM], 14-3-3 isoform sigma: none | Sirt5 S168: Affinity estimates by MicroScale Thermophoresis [μM], 14-3-3 isoform epsilon: aggr.; Affinity estimates by MicroScale Thermophoresis [μM], 14-3-3 isoform theta: aggr.; Affinity estimates by MicroScale Thermophoresis [μM], 14-3-3 isoform sigma: > 329 | Sirt6 T337: Affinity estimates by MicroScale Thermophoresis [μM], 14-3-3 isoform epsilon: > 420; Affinity estimates by MicroScale Thermophoresis [μM], 14-3-3 isoform sigma: 12 | Sirt6 S338: Affinity estimates by MicroScale Thermophoresis [μM], 14-3-3 isoform epsilon: 19; Affinity estimates by MicroScale Thermophoresis [μM], 14-3-3 isoform sigma: 24 | Sirt7 S136: Affinity estimates by MicroScale Thermophoresis [μM], 14-3-3 isoform epsilon: none; Affinity estimates by MicroScale Thermophoresis [μM], 14-3-3 isoform theta: 30; Affinity estimates by MicroScale Thermophoresis [μM], 14-3-3 isoform sigma: 49

14-3-3 isoform epsilon = molecular target: T2, 14-3-3 isoform epsilon (Homo sapiens, UniProt P62258); test: Label-free microscale thermophoresis (MST) binding, 14-3-3 epsilon; conditions: label-free MST, 0.6 µM 14-3-3 protein, 25 mM MES pH 6.5, 5 mM MgCl2, 5 mM CaCl2, 25°C; Kd from duplicate measurements; read-out: Affinity estimates by MicroScale Thermophoresis, 14-3-3 isoform epsilon (Kd)
T2 construct: His6; made in house; host or cells: Escherichia coli BL21 Rosetta (DE3)
T2 sequence (P62258 1-255): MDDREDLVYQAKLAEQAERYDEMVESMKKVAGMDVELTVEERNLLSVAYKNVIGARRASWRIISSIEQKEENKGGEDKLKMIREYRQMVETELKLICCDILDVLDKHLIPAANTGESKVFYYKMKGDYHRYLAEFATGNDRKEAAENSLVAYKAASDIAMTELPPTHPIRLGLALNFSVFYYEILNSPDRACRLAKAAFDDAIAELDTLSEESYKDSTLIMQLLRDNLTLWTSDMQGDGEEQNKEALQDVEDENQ
Description: as §1, §2

14-3-3σ-ΔC = molecular target: T3, 14-3-3σ-ΔC (Homo sapiens, UniProt P31947); test: Label-free microscale thermophoresis (MST) binding, 14-3-3σ
T3 construct: His6; made in house; host or cells: Escherichia coli BL21 Rosetta (DE3)
T3 sequence (P31947 1-231 limits assumed): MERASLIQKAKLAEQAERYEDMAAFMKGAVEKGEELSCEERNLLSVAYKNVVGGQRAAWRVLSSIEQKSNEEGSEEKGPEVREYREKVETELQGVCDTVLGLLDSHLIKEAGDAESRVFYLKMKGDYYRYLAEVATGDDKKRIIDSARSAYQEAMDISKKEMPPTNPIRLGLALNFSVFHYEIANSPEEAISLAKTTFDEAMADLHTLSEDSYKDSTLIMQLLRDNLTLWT
Description: as §1, §2
For nine of the sites, including sites from all sirtuin isoforms except Sirt4, endecameric phosphopeptides were chemically synthesized for in vitro analysis. […]

Q: What does the source list for `CC(C)C[C@H](NC(=O)[C@@H](N)C(C)C)C(=O)N[C@@H](CO)C(=O)N[C@@H](CO)C(=O)N[C@@H](CO)C(=O)N[C@@H](COP(=O)(O)O)C(=O)N[C@@H](CS)C(=O)NCC(=O)N[C@@H](CO)C(=O)N[C@@H](CC(N)=O)C(=O)N[C@@H](CO)C(=O)O` [Sirt1^pS670] (H-VLSSS[pS]CGSNS-OH)?
A: Kd (14-3-3 isoform theta): 93 µM; Kd (14-3-3 isoform epsilon): > 183 µM; Kd (14-3-3σ-ΔC; Fig. 1, label-free MST, 0.6 µM 14-3-3 protein, 25 mM MES pH 6.5, 5 mM MgCl2, 5 mM CaCl2, 25°C, Kd from duplicate measurements, read-out: Affinity estimates by MicroScale Thermophoresis, 14-3-3 isoform sigma (Kd)): 5 µM; Kd (14-3-3σ-ΔC; Fig. 3a, average of two independent MST experiments, 25°C, MES pH 6.5, read-out: average Kd, MST titration of 14-3-3σ-ΔC): 1.7 ± 1.3 µM
